Source: US11981677B2, “Further substituted triazolo quinoxaline derivatives” (Grünenthal GmbH, priority 2018, dated 2024)

Target: T1, Glucocorticoid Receptor (Homo sapiens, UniProt P04150)
T1 construct: expressed in transfected cells
T1 sequence (P04150 524-758 limits assumed): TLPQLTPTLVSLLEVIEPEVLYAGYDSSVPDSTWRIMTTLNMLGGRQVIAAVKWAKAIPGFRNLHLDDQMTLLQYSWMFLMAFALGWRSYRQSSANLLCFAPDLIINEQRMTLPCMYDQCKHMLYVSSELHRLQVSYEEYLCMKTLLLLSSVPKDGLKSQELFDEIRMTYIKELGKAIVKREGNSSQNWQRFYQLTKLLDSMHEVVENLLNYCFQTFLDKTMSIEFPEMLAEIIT
Assay: Agonistic mode of action on the glucocorticoid receptor (CHO-Gal4/GR luciferase reporter cell line)
Type: cell-based
Conditions: CHO-Gal4/GR luciferase reporter cells; observed in the agonistic assay or the antagonistic assay (mode not given); read-out: IC50 or EC50 range
Excerpt: Potential selective glucocorticoid receptor modulators of this intervention can be tested for modulation of the activity of the glucocorticoid receptor using cell-based assays. These assays involve a Chinese hamster ovary (CHO) cell line which contains fragments of the glucocorticoid receptor as well as fusion proteins. The glucocorticoid receptor fragments used are capable of binding the ligand (e.g. beclomethasone) to identify molecules that compete for binding with glucocorticoid receptor ligands. In more detail, the glucocorticoid receptor ligand binding domain is fused to the DNA binding domain (DBD) of the transcriptionfactor GAL4 (GAL4 DBD-GR) and is stably integrated into a CHO cell line containing a GAL4-UAS-Luciferase reporter construct. […] After cell lysis the luminescence that is produced by luciferase after addition of the substrate is detected and EC50 or IC50 values can be calculated. Engagement of molecules which induce gene expression via glucocortocoid receptor binding to the DNA leads to expression of the luciferase gene under the control of the fusion protein GAL4 DBD-GR and therefore to a dose-dependent increase of the luminescence signal. Binding of molecules which repress beclomethasone-induced gene expression of the luciferase gene under the control of the fusion protein GAL4 DBD-GR leads to a dose-dependent reduction of the luminescence signal.
The reporter cell line CHO-Gal4/GR consisted of a chinese hamster ovary (CHO) cell line (Leibniz Institute DSMZ—German Collection of Microorganisms and Cell Cultures GmbH: ACC-110) containing a firefly luciferase gene under the control of the GR ligand binding domain fused to the DNA binding domain (DBD) of GAL4 (GAL4 DBD-GR) stably integrated into CHO cells. This cell line was established by stable transfection of CHO cells with a GAL4-UAS-Luciferase reporter construct. In a subsequent step the ligand binding domain of the GR cloned into pIRES2-EGFP-GAL4 containing the DNA binding domain of GAL4 from pFA-AT2 was transfected. This fusion construct activated firefly luciferase expression under the control of a multimerized GAL4 upstream activation sequence (UAS). The signal of the emitted luminescence was recorded by the FLIPR^TETRA. This allowed for specific detection of ligand-induced activation of the GR and therefore for the identification of compounds with agonistic properties. The GAL4/UAS reporter was premixed with a vector that constitutively expressed Renilla luciferase, which served as an internal positive control for transfection efficiency.
The complete culture medium for the assay was: • DMEM F-12 (1:1) MIXTURE (LONZA cat. No: BE04-687F/U1) 500 mL • 5 mL of 100 mM Sodium Pyruvate (LONZA cat. No: BE12-115E) • 25 mL of 7.5% Sodium Bicarbonate (LONZA cat. No BE17-613E) • 6.5 mL of 1 M Hepes (LONZA cat. No: BE17-737E) • 5 mL of 100× Penicillin/Streptomycin (LONZA cat. No DE17-602E) • 50 mL of Fetal Bovine Serum (Euroclone cat. No ECS 0180L) • 0.25 mL of 10 mg/mL Puromycin (InvivoGen cat.: ant-pr-1) • 0.5 mL of 100 mg/mL Zeocin (InvivoGen cat.: ant-zn-1)
Cryo-preserved CHO-Gal4/GR cells were suspended in complete medium and 5000 cells/25 μl/well were seeded into the wells of 384-well polystyrene assay plates (Thermo Scientific, cat. #4332) and cultured at 37° C., 5% CO2 and 95% humidity. After 24 hours growth medium was carefully removed and replaced by 30111 Opti-MEM (GIBCO, cat. #31985062) as assay buffer. To test the compounds an 8-point half-log compound dilution curve was generated in 100% DMSO starting from a 2 mM stock and compounds were then diluted 1:50 in Opti-MEM. 10111 of compounds were then added to the wells containing 30 μl Opti-MEM resulting in a final assay concentration range from 10 μM to 0.003 μM in 0.5% DMSO. Compounds were tested at 8 concentrations in quadruplicate data points. […] Finally, cells were lysed with 20 μl of Triton/Luciferin solution and the signal of the emitted luminescence was recorded at the FLIPR^TETRA for 2 minutes. […]

SMILES | IC50 or EC50 (antagonist or agonist mode, not stated per compound) [nM]
CCc1nnc2n1-c1c(C)c(-c3cc(F)cc4c3ccn4S(C)(=O)=O)cc(F)c1NC2(C)C [Example 323, 1-Ethyl-6-fluoro-8-(6-fluoro-1-methylsulfonyl-1H-indol-4-yl)-4,4,9-trimethyl-5H-[1,2,4]triazolo[4,3-a]quinoxaline] | 100 to 1000
Cc1c(-c2cc(F)cc3c(C)c[nH]c23)cc(Cl)c2c1-n1c(C)nnc1C(C)(C)N2 [Example 454, 6-Chloro-8-(5-fluoro-3-methyl-1H-indol-7-yl)-1,4,4,9-tetramethyl-5H-[1,2,4]triazolo[4,3-a]quinoxaline] | < 100
COc1c(-c2cc(F)cc3c2ccn3S(C)(=O)=O)cc(F)c2c1-n1c(C)nnc1C(C)(C)N2 [Example 56, 6-Fluoro-8-(6-fluoro-1-methylsulfonyl-1H-indol-4-yl)-9-methoxy-1,4,4-trimethyl-5H-[1,2,4]triazolo[4,3-a]quinoxaline] | 100 to 1000
Cc1c(-c2cccc3c2ccn3CC(F)F)cc(F)c2c1-n1c(C)nnc1C(C)(C)N2 [Example 326, 8-[1-(2,2-Difluoro-ethyl)-1H-indol-4-yl]-6-fluoro-1,4,4,9-tetramethyl-5H-[1,2,4]triazolo[4,3-a]quinoxaline] | 100 to 1000
Cc1c(-c2cc(F)cc3c2ccn3CCO)cc(Cl)c2c1-n1c(C)nnc1C(C)(C)N2 [Example 463, 2-[4-(6-Chloro-1,4,4,9-tetramethyl-5H-[1,2,4]triazolo[4,3-a]quinoxalin-8-yl)-6-fluoro-1H-indol-1-yl]-EtOH] | < 100
COc1c(-c2cccc3c2ccn3S(C)(=O)=O)cc(F)c2c1-n1c(C)nnc1C(C)(C)N2 [Example 57, 6-Fluoro-9-methoxy-1,4,4-trimethyl-8-(1-methylsulfonyl-1H-indol-4-yl)-5H-[1,2,4]triazolo[4,3-a]quinoxaline] | 100 to 1000
Cc1c(-c2cc(F)cc3c2ccn3S(C)(=O)=O)cc(Cl)c2c1-n1c(C)nnc1C(C)(C)N2 [Example 457, 6-Chloro-8-(6-fluoro-1-methylsulfonyl-1H-indol-4-yl)-1,4,4,9-tetramethyl-5H-[1,2,4]triazolo[4,3-a]quinoxaline] | < 100
Cc1nnc2n1-c1c(CO)c(-c3cc(F)cc4c3ccn4S(C)(=O)=O)cc(F)c1NC2(C)C [Example 453, [6-Fluoro-8-(6-fluoro-1-methylsulfonyl-1H-indol-4-yl)-1,4,4-trimethyl-5H-[1,2,4]triazolo[4,3-a]quinoxalin-9-yl]-MeOH] | < 100
Cc1cc(-c2cc(F)c3c(c2C)-n2c(C)nnc2C(C)(C)N3)c2ccn(S(C)(=O)=O)c2c1 [Example 475, 6-Fluoro-1,4,4,9-tetramethyl-8-(6-methyl-1-methylsulfonyl-1H-indol-4-yl)-5H-[1,2,4]triazolo[4,3-a]quinoxaline] | 100 to 1000
COc1c(-c2cc(F)cc3c(C)c[nH]c23)cc(F)c2c1-n1c(C3CC3)nnc1C(C)(C)N2 [Example 62, 1-Cyclopropyl-6-fluoro-8-(5-fluoro-3-methyl-1H-indol-7-yl)-9-methoxy-4,4-dimethyl-5H-[1,2,4]triazolo[4,3-a]quinoxaline] | 100 to 1000
Cc1c(-c2cccc3c2ccn3S(C)(=O)=O)cc(F)c2c1-n1c(C3CC3)nnc1C(C)(C)N2 [Example 64, 1-Cyclopropyl-6-fluoro-4,4,9-trimethyl-8-(1-methylsulfonyl-1H-indol-4-yl)-5H-[1,2,4]triazolo[4,3-a]quinoxaline] | 1000 to 15000
Cc1c(-c2cccc3[nH]ccc23)cc(F)c2c1-n1c(C)nnc1C(C)(C)N2 [Example 468, 6-Fluoro-8-(1H-indol-4-yl)-1,4,4,9-tetramethyl-5H-[1,2,4]triazolo[4,3-a]quinoxaline] | < 100
Cc1c(-c2cccc3c(C)n[nH]c23)cc(F)c2c1-n1c(C)nnc1C(C)(C)N2 [Example 352, 6-Fluoro-1,4,4,9-tetramethyl-8-(3-methyl-1H-indazol-7-yl)-5H-[1,2,4]triazolo[4,3-a]quinoxaline] | 100 to 1000
Cc1c(-c2cccc3c2cnn3S(C)(=O)=O)cc(F)c2c1-n1c(C)nnc1C(C)(C)N2 [Example 378, 6-Fluoro-1,4,4,9-tetramethyl-8-(1-methylsulfonyl-1H-indazol-4-yl)-5H-[1,2,4]triazolo[4,3-a]quinoxaline] | 1000 to 15000
CCS(=O)(=O)n1ccc2c(-c3cc(F)c4c(c3C)-n3c(C)nnc3C(C)(C)N4)cccc21 [Example 350, 8-[1-(Ethylsulfonyl)-1H-indol-4-yl]-6-fluoro-1,4,4,9-tetramethyl-5H-[1,2,4]triazolo[4,3-a]quinoxaline] | < 100

More lines, now with the values ahead:

IC50 or EC50 (antagonist or agonist mode, not stated per compound) [nM] | SMILES
100 to 1000 | Cc1nnc2n1-c1c(c(F)c(F)c(-c3cccc4c3ccn4S(C)(=O)=O)c1C(F)(F)F)NC2(C)C [Example 500, 6,7-difluoro-1,4,4-trimethyl-8-(1-(methylsulfonyl)-1H-indol-4-yl)-9-(trifluoromethyl)-4,5-dihydro-[1,2,4]triazolo[4,3-a]quinoxaline]
100 to 1000 | Cc1nnc2n1-c1c(c(F)c(F)c(-c3cc(F)cc4c3ccn4S(C)(=O)=O)c1C(F)(F)F)NC2(C)C [Example 518, 6,7-difluoro-8-(6-fluoro-1-(methylsulfonyl)-1H-indol-4-yl)-1,4,4-trimethyl-9-(trifluoromethyl)-4,5-dihydro-[1,2,4]triazolo[4,3-a]quinoxaline]
100 to 1000 | COc1cc(-c2c(C)c3c(c(F)c2F)NC(C)(C)c2nnc(C)n2-3)c2ccn(S(C)(=O)=O)c2c1 [Example 522, 6,7-Difluoro-8-(6-methoxy-1-methylsulfonyl-1H-indol-4-yl)-1,4,4,9-tetramethyl-5H-[1,2,4]triazolo[4,3-a]quinoxaline]
100 to 1000 | Cc1c(-c2cccc3c(C)c[nH]c23)c(F)c(F)c2c1-n1c(C)nnc1C(C)(C)N2 [Example 513, 6,7-Difluoro-1,4,4,9-tetramethyl-8-(3-methyl-1H-indol-7-yl)-5H-[1,2,4]triazolo[4,3-a]quinoxaline]
100 to 1000 | Cc1c(-c2ccc(F)c3[nH]ncc23)cc(F)c2c1-n1c(C)nnc1C(C)(C)N2 [Example 517, 6-Fluoro-8-(7-fluoro-1H-indazol-4-yl)-1,4,4,9-tetramethyl-5H-[1,2,4]triazolo[4,3-a]quinoxaline]
100 to 1000 | Cc1c(-c2cc(F)cc3[nH]ncc23)cc(F)c2c1-n1c(C)nnc1C(C)(C)N2 [Example 496, 6-Fluoro-8-(6-fluoro-1H-indazol-4-yl)-1,4,4,9-tetramethyl-5H-[1,2,4]triazolo[4,3-a]quinoxaline]
